System: MCF7
Test: Cytotoxicity against human MCF7 cells harboring HRE-driven luciferase gene
Format: cell-based
Settings: not given

| Structure (SMILES) | Activity |
| --- | --- |
| CCOC(=O)c1oc2ccc(NS(=O)(=O)c3cccs3)cc2c1C | Non-Toxic |
| CCOC(=O)c1oc2ccc(NS(=O)(=O)c3ccc(OC)c(OC)c3)cc2c1C | Non-Toxic |
| CCOC(=O)c1oc2ccc(NS(=O)(=O)c3cc(OC)ccc3OC)cc2c1C | Non-Toxic |
| CCOC(=O)c1oc2ccc(NS(=O)(=O)c3cccnc3)cc2c1C | Non-Toxic |
| CCOC(=O)c1oc2ccc(NS(=O)(=O)c3ccc(C(F)(F)F)cc3)cc2c1C | Non-Toxic |
| CCOC(=O)c1oc2ccc(NS(=O)(=O)c3cccc([N+](=O)[O-])c3)cc2c1C | Non-Toxic |
| CCOC(=O)c1oc2ccc(NS(=O)(=O)c3ccc([N+](=O)[O-])cc3)cc2c1C | Non-Toxic |
| CCOC(=O)c1oc2ccc(NS(=O)(=O)c3ccc(C)cc3)cc2c1C | Non-Toxic |
| CCOC(=O)c1oc2ccc(NS(=O)(=O)c3ccc(Cl)cc3)cc2c1C | Non-Toxic |
| CCOC(=O)c1oc2ccc(NS(=O)(=O)c3ccccc3Br)cc2c1C | Non-Toxic |

Target: T1, Hypoxia-inducible factor 1-alpha (Homo sapiens, UniProt Q16665)
Test: Inhibition of HIF-1alpha transcriptional activity in human MCF7 cells assessed as reduction in VEGF secretion after 24 hrs under hypoxic condition by ELISA
Format: cell-based
Settings: not given

| Structure (SMILES) | IC50 | inhibition |
| --- | --- | --- |
| CCOC(=O)c1oc2ccc(NS(=O)(=O)c3ccc(OC)c(OC)c3)cc2c1C | 18.8 µM | Dose-dependent effect |

System: MDA-MB-231
Test: Antiproliferative activity against human MDA-MB-231 cells after 72 hrs under hypoxic condition by MTT assay
Format: functional, cell-based
Settings: MDA-MB-231, 72 h

| Structure (SMILES) | IC50 |
| --- | --- |
| CCOC(=O)c1oc2ccc(NS(=O)(=O)c3cccs3)cc2c1C | 44.1 µM |
| CCOC(=O)c1oc2ccc(NS(=O)(=O)c3ccc(OC)c(OC)c3)cc2c1C | 35.4 µM |
| CCOC(=O)c1oc2ccc(NS(=O)(=O)c3cc(OC)ccc3OC)cc2c1C | 26.7 µM |
| CCOC(=O)c1oc2ccc(NS(=O)(=O)c3cccnc3)cc2c1C | 141 µM |
| CCOC(=O)c1oc2ccc(NS(=O)(=O)c3ccc(C(F)(F)F)cc3)cc2c1C | 24.3 µM |
| CCOC(=O)c1oc2ccc(NS(=O)(=O)c3cccc([N+](=O)[O-])c3)cc2c1C | 59.9 µM |
| CCOC(=O)c1oc2ccc(NS(=O)(=O)c3ccc([N+](=O)[O-])cc3)cc2c1C | 33.1 µM |
| CCOC(=O)c1oc2ccc(NS(=O)(=O)c3ccc(C)cc3)cc2c1C | 25.2 µM |
| CCOC(=O)c1oc2ccc(NS(=O)(=O)c3ccc(Cl)cc3)cc2c1C | 53.9 µM |
| CCOC(=O)c1oc2ccc(NS(=O)(=O)c3ccccc3Br)cc2c1C | 179 µM |

System: HUVEC
Test: Anti-angiogenic activity against HUVEC assessed as inhibition of hypoxia-induced tube formation after 24 hrs by 2-dimensional matrigel assay
Format: functional, cell-based
Settings: Homo sapiens

| Structure (SMILES) | inhibition |
| --- | --- |
| CCOC(=O)c1oc2ccc(NS(=O)(=O)c3ccc(OC)c(OC)c3)cc2c1C | Dose-dependent effect |

System: MDA-MB-468
Test: Antiproliferative activity against human MDA-MB-468 cells after 72 hrs under hypoxic condition by MTT assay
Format: functional, cell-based
Settings: MDA-MB-468, 72 h

| Structure (SMILES) | IC50 |
| --- | --- |
| CCOC(=O)c1oc2ccc(NS(=O)(=O)c3cccs3)cc2c1C | 34.3 µM |
| CCOC(=O)c1oc2ccc(NS(=O)(=O)c3ccc(OC)c(OC)c3)cc2c1C | 20.5 µM |
| CCOC(=O)c1oc2ccc(NS(=O)(=O)c3cc(OC)ccc3OC)cc2c1C | 20.7 µM |
| CCOC(=O)c1oc2ccc(NS(=O)(=O)c3cccnc3)cc2c1C | 62.9 µM |
| CCOC(=O)c1oc2ccc(NS(=O)(=O)c3ccc(C(F)(F)F)cc3)cc2c1C | 27.2 µM |
| CCOC(=O)c1oc2ccc(NS(=O)(=O)c3cccc([N+](=O)[O-])c3)cc2c1C | 30.1 µM |
| CCOC(=O)c1oc2ccc(NS(=O)(=O)c3ccc([N+](=O)[O-])cc3)cc2c1C | 24 µM |
| CCOC(=O)c1oc2ccc(NS(=O)(=O)c3ccc(C)cc3)cc2c1C | 24 µM |
| CCOC(=O)c1oc2ccc(NS(=O)(=O)c3ccc(Cl)cc3)cc2c1C | 44 µM |
| CCOC(=O)c1oc2ccc(NS(=O)(=O)c3ccccc3Br)cc2c1C | 138 µM |

System: MCF7
Test: Antiproliferative activity against human MCF7 cells after 72 hrs under hypoxic condition by MTT assay
Format: functional, cell-based
Settings: MCF7, 72 h

| Structure (SMILES) | IC50 |
| --- | --- |
| CCOC(=O)c1oc2ccc(NS(=O)(=O)c3cccs3)cc2c1C | 92.3 µM |
| CCOC(=O)c1oc2ccc(NS(=O)(=O)c3ccc(OC)c(OC)c3)cc2c1C | 52 µM |
| CCOC(=O)c1oc2ccc(NS(=O)(=O)c3cc(OC)ccc3OC)cc2c1C | 52.3 µM |
| CCOC(=O)c1oc2ccc(NS(=O)(=O)c3cccnc3)cc2c1C | > 200 µM |
| CCOC(=O)c1oc2ccc(NS(=O)(=O)c3ccc(C(F)(F)F)cc3)cc2c1C | 48.7 µM |
| CCOC(=O)c1oc2ccc(NS(=O)(=O)c3cccc([N+](=O)[O-])c3)cc2c1C | 74.8 µM |
| CCOC(=O)c1oc2ccc(NS(=O)(=O)c3ccc([N+](=O)[O-])cc3)cc2c1C | 69.6 µM |
| CCOC(=O)c1oc2ccc(NS(=O)(=O)c3ccc(C)cc3)cc2c1C | 53.9 µM |
| CCOC(=O)c1oc2ccc(NS(=O)(=O)c3ccc(Cl)cc3)cc2c1C | 81.2 µM |
| CCOC(=O)c1oc2ccc(NS(=O)(=O)c3ccccc3Br)cc2c1C | 185 µM |

Target: T1, Hypoxia-inducible factor 1-alpha
Test: Inhibition of HIF-1alpha (unknown origin) transcriptional activity expressed in human MCF7 cells after 24 hrs under hypoxic condition by HRE luciferase reporter gene assay
Format: cell-based
Settings: not given
Target sequence in this assay (Q16665 whole entry): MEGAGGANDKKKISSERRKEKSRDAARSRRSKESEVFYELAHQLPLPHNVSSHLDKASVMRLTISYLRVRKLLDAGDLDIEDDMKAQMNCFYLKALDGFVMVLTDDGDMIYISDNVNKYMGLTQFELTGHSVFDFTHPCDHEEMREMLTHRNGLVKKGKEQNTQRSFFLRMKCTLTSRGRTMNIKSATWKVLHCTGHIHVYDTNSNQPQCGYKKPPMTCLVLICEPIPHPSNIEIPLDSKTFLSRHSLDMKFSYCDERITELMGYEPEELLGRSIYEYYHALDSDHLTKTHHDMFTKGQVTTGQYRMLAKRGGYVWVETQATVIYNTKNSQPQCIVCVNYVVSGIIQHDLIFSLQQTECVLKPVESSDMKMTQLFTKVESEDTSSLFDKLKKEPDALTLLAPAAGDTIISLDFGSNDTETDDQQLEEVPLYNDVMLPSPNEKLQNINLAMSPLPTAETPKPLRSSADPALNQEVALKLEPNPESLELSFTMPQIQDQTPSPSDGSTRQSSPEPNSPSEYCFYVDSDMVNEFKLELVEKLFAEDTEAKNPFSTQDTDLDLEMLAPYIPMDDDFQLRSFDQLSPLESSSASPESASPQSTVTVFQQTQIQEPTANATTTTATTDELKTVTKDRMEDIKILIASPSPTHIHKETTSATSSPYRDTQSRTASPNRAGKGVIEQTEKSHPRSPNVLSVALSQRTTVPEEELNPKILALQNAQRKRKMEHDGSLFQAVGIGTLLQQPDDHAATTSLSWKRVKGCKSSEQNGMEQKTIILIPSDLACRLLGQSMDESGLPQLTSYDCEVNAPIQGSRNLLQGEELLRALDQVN

| Structure (SMILES) | IC50 |
| --- | --- |
| CCOC(=O)c1oc2ccc(NS(=O)(=O)c3cccs3)cc2c1C | 45.4 µM |
| CCOC(=O)c1oc2ccc(NS(=O)(=O)c3ccc(OC)c(OC)c3)cc2c1C | 12.5 µM |
| CCOC(=O)c1oc2ccc(NS(=O)(=O)c3cc(OC)ccc3OC)cc2c1C | 15.5 µM |
| CCOC(=O)c1oc2ccc(NS(=O)(=O)c3cccnc3)cc2c1C | 34.1 µM |
| CCOC(=O)c1oc2ccc(NS(=O)(=O)c3ccc(C(F)(F)F)cc3)cc2c1C | 41.7 µM |
| CCOC(=O)c1oc2ccc(NS(=O)(=O)c3cccc([N+](=O)[O-])c3)cc2c1C | 29.4 µM |
| CCOC(=O)c1oc2ccc(NS(=O)(=O)c3ccc([N+](=O)[O-])cc3)cc2c1C | 36.2 µM |
| CCOC(=O)c1oc2ccc(NS(=O)(=O)c3ccc(C)cc3)cc2c1C | 45.4 µM |
| CCOC(=O)c1oc2ccc(NS(=O)(=O)c3ccc(Cl)cc3)cc2c1C | 50 µM |
| CCOC(=O)c1oc2ccc(NS(=O)(=O)c3ccccc3Br)cc2c1C | 19.9 µM |

System: HUVEC
Test: Cytotoxicity against HUVEC assessed as reduction in cell viability at 2.5 to 50 uM after 24 hrs by MTT assay
Format: cell-based
Settings: human

| Structure (SMILES) | Activity |
| --- | --- |
| CCOC(=O)c1oc2ccc(NS(=O)(=O)c3ccc(OC)c(OC)c3)cc2c1C | Non-Toxic |

Target: T1, Hypoxia-inducible factor 1-alpha
Test: Inhibition of HIF-1alpha transcriptional activity in human MCF7 cells assessed as reduction in VEGF mRNA level after 24 hrs under hypoxic condition by RT-PCR method
Format: cell-based
Settings: not given
Target sequence in this assay (Q16665 whole entry, looked up): as the sequence (Q16665 whole entry) above

| Structure (SMILES) | inhibition |
| --- | --- |
| CCOC(=O)c1oc2ccc(NS(=O)(=O)c3ccc(OC)c(OC)c3)cc2c1C | Dose-dependent effect |

System: Chorioallantoic membrane
Test: Antiangiogenic activity in chicken chorioallantoic membrane assessed as inhibition of hypoxia-induced vessel formation after 3 days
Format: functional
Settings: Gallus gallus

| Structure (SMILES) | inhibition |
| --- | --- |
| CCOC(=O)c1oc2ccc(NS(=O)(=O)c3ccc(OC)c(OC)c3)cc2c1C | Dose-dependent effect |

System: HUVEC
Test: Anti-migratory activity against HUVEC assessed as inhibition of hypoxia-induced cell movement after 24 hrs by wound healing assay
Format: functional, cell-based
Settings: Homo sapiens

| Structure (SMILES) | inhibition |
| --- | --- |
| CCOC(=O)c1oc2ccc(NS(=O)(=O)c3ccc(OC)c(OC)c3)cc2c1C | Dose-dependent effect |

System: MCF7
Test: Downregulation of HIF-1alpha mRNA expression level in human MCF7 cells after 24 hrs under hypoxic condition by RT-PCR method
Format: functional, cell-based
Settings: not given

| Structure (SMILES) | Activity |
| --- | --- |
| CCOC(=O)c1oc2ccc(NS(=O)(=O)c3ccc(OC)c(OC)c3)cc2c1C | Dose-dependent effect |

System: MCF7
Test: Downregulation of HIF-1alpha protein expression level in human MCF7 cells after 24 hrs under hypoxic condition by Western blot method
Format: functional, cell-based
Settings: not given

| Structure (SMILES) | Activity |
| --- | --- |
| CCOC(=O)c1oc2ccc(NS(=O)(=O)c3ccc(OC)c(OC)c3)cc2c1C | Dose-dependent effect |

From ChEMBL document CHEMBL3992551, “Synthesis and evaluation of N-(benzofuran-5-yl)aromaticsulfonamide derivatives as novel HIF-1 inhibitors that possess anti-angiogenic potential” (Bioorg Med Chem, 2017)
